Reference: patent publication US20240317708A1, “INHIBITORS OF TRANSGLUTAMINASES” (ZEDIRA GMBH, priority 2021, published 2024)

Legend:
[1] = target: T1, recombinant human transglutaminase 2 (Homo sapiens, UniProt P21980); assay: Transglutaminase assay (dansylcadaverine incorporation into dimethylcasein, DCC-assay); type: biochemical; conditions: recombinant human TG2 10 nM, dansylcadaverine/dimethylcasein, 37° C.
T1 construct: purchased Zedira T022
T1 sequence (P21980 1-687): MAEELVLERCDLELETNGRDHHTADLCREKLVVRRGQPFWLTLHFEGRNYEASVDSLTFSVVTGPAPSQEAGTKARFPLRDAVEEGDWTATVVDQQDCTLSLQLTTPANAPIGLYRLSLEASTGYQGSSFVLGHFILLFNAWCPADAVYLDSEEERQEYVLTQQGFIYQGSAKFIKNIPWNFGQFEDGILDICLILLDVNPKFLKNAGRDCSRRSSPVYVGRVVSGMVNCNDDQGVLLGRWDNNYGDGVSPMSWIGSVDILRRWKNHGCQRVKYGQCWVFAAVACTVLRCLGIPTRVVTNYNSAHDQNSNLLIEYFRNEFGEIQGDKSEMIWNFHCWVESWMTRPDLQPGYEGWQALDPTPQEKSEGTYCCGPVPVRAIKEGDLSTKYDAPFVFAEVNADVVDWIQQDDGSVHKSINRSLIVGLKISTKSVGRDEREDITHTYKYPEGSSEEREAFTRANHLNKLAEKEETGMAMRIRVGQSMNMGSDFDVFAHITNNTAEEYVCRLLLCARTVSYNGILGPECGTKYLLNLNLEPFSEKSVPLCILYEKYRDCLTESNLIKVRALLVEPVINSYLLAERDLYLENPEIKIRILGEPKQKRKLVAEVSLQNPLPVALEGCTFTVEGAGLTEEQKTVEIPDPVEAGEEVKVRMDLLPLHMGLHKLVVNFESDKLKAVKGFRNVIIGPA
Summary of the method: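 IC50 derived from fluorescence slope between 20 and 30 min (λex 330 nm, λem 500 nm, 37 °C), expressed relative to a 2% DMSO control. Reaction: 10 nM recombinant human TG2, 4 μM dimethylcasein, 16.7 μM dansylcadaverine, 10 mM CaCl2 and glutathione, pH 8.0.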

[2] = Log D shake flask method (octanol / PBS pH 7.4, HPLC); type: physicochemical; conditions: octanol/phosphate-buffered saline (PBS); octanol / PBS pH 7.4, shake flask
Procedure: In order to classify the inventive compounds according to their lipophilicity, Log D values (distribution coefficient) were determined by means of the well-established shake flask method, measuring the partition of a compound between an octanol and phosphate-buffered saline (PBS, pH 7.4) by HPLC.

[3] = Caco-2 permeability assay (CacoReady kit); type: in vitro ADME; conditions: human
Summary of the method: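 Papp values come from Caco-2 barrier studies intended to predict oral bioavailability; the manufacturer's procedure for the ready-made kit was followed.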

IC50 [1] [nM] | logD [2] | Papp [3] [×10⁻⁶ cm/s] | Compound
< 25 | 3 to 5 | < 1 | COC(=O)/C=C/CC[C@H](NC(=O)c1ccnn1C)C(=O)Nc1cccn(CC(=O)NC23CC4(C)CC(C)(CC(C)(C4)C2)C3)c1=O [III-109, (S,E)-methyl 7-(1-(2-(3,5,7-trimethyl-1-adamantylamino)-2-oxoethyl)-2-oxo-1,2-dihydropyridin-3-ylamino)-6-(1-methyl-1H-pyrazole-5-carboxamido)-7-oxohept-2-enoate]
250 to 1500 | 3 to 5 | 1 to 10 | COC(=O)/C=C/CC[C@H](NC(=O)c1oc2ccccc2c1C)C(=O)Nc1cccn(CC(=O)N(C)C23CC4CC(CC(C4)C2)C3)c1=O [III-47, (S,E)-methyl 7-(1-(2-(1-adamantyl(methyl)amino)-2-oxoethyl)-2-oxo-1,2-dihydropyridin-3-ylamino)-6-(3-methylbenzofuran-2-carboxamido)-7-oxohept-2-enoate]
< 25 | 3 to 5 | 1 to 10 | COC(=O)/C=C/CC[C@H](NC(=O)c1oc2ccccc2c1C)C(=O)Nc1cccn(CC(=O)N[C@@H]2C[C@H]3CC[C@@H]2C3)c1=O [III-63, (S,E)-methyl 7-(1-(2-((1R,2R,4S)-bicyclo[2.2.1]heptan-2-ylamino)-2-oxoethyl)-2-oxo-1,2-dihydropyridin-3-ylamino)-6-(3-methylbenzofuran-2-carboxamido)-7-oxohept-2-enoate]
< 25 | 3 to 5 | 1 to 10 | COC(=O)/C=C/CC[C@H](NC(=O)c1oc2ccccc2c1C)C(=O)Nc1cccn(CC(=O)NC23CC4CC(CC(F)(C4)C2)C3)c1=O [III-51, (S,E)-methyl 7-(1-(2-(3-fluoroadamantan-1-amino)-2-oxoethyl)-2-oxo-1,2-dihydropyridin-3-ylamino)-6-(3-methylbenzofuran-2-carboxamido)-7-oxohept-2-enoate]
25 to 250 | 3 to 5 | 1 to 10 | COC(=O)/C=C/CC[C@H](NC(=O)c1oc2ccccc2c1C)C(=O)Nc1cccn(CC(=O)NC23CC4CC(C2)CC(C(F)(F)F)(C4)C3)c1=O [III-49, (S,E)-methyl 7-(1-(2-(3-trifluoromethyladamantan-1-amino)-2-oxoethyl)-2-oxo-1,2-dihydropyridin-3-ylamino)-6-(3-methylbenzofuran-2-carboxamido)-7-oxohept-2-enoate]
< 25 | 1 to 3 | 1 to 10 | Cc1c(C(=O)N[C@@H](CC/C=C/S(C)(=O)=O)C(=O)Nc2cccn(CC(=O)NC3C4CC5CC(C4)CC3C5)c2=O)oc2ccccc12 (stereo partly drawn) [III-90, (S,E)-N-(1-(1-(2-(2-adamantylamino)-2-oxoethyl)-2-oxo-1,2-dihydropyridin-3-ylamino)-6-(methylsulfonyl)-1-oxohex-5-en-2-yl)-3-methylbenzofuran-2-carboxamide]
< 25 | 3 to 5 | < 1 | COC(=O)/C=C/CC[C@H](NC(=O)c1ccncc1)C(=O)Nc1cccn(CC(=O)NC2C3CC4CC(C3)CC2C4)c1=O (stereo partly drawn) [III-84, (S,E)-methyl 6-(isonicotinamido)-7-(1-(2-(2-adamantylamino)-2-oxoethyl)-2-oxo-1,2-dihydropyridin-3-ylamino)-7-oxohept-2-enoate]
25 to 250 | 3 to 5 | < 1 | COC(=O)/C=C/CC[C@H](NC(=O)[C@@H]1CCCCN1)C(=O)Nc1cccn(CC(=O)NC2C3CC4CC(C3)CC2C4)c1=O (stereo partly drawn) [III-29, (S,E)-methyl 7-(1-(2-(2-adamantylamino)-2-oxoethyl)-2-oxo-1,2-dihydropyridin-3-ylamino)-7-oxo-6-((S)-piperidine-2-carboxamido)hept-2-enoate]
25 to 250 | 1 to 3 | 1 to 10 | COC(=O)/C=C/CC[C@H](NC(=O)c1cnc(C(C)C)o1)C(=O)Nc1cccn(CC(=O)NC23CCC(C2)C3)c1=O [III-134, (S,E)-methyl 7-(1-(2-(bicyclo[2.1.1]hexan-1-ylamino)-2-oxoethyl)-2-oxo-1,2-dihydropyridin-3-ylamino)-6-(2-isopropyloxazole-5-carboxamido)-7-oxohept-2-enoate]
25 to 250 | 1 to 3 | 1 to 10 | Cc1cc(C(=O)N[C@@H](CC/C=C/C(=O)Nc2ccccc2)C(=O)Nc2cccn(CC(=O)NC34CC(C3)C4)c2=O)c(C)o1 [III-153, (S,E)-N7-(1-(2-(bicyclo[1.1.1]pentan-1-ylamino)-2-oxoethyl)-2-oxo-1,2-dihydropyridin-3-yl)-6-(2,5-dimethylfuran-3-carboxamido)-N1-phenylhept-2-enediamide]
< 25 | 3 to 5 | < 1 | COC(=O)/C=C/CC[C@H](NC(=O)c1cc(C(=O)OC)cc([N+](=O)[O-])c1)C(=O)Nc1cccn(CC(=O)NC2C3CC4CC(C3)CC2C4)c1=O (stereo partly drawn) [III-33, (S,E)-methyl 3-(1-(1-(2-(2-adamantylamino)-2-oxoethyl)-2-oxo-1,2-dihydropyridin-3-ylamino)-7-methoxy-1,7-dioxohept-5-en-2-ylcarbamoyl)-5-nitrobenzoate]
25 to 250 | 3 to 5 | < 1 | COC(=O)/C=C/CC[C@H](NC(=O)c1cncc(C(=O)OC)c1)C(=O)Nc1cccn(CC(=O)NC2C3CC4CC(C3)CC2C4)c1=O (stereo partly drawn) [III-36, (S,E)-methyl 5-(1-(1-(2-(2-adamantylamino)-2-oxoethyl)-2-oxo-1,2-dihydropyridin-3-ylamino)-7-methoxy-1,7-dioxohept-5-en-2-ylcarbamoyl)nicotinate]
< 25 | 1 to 3 | < 1 | COC(=O)/C=C/CC[C@H](NC(=O)c1cncn1C)C(=O)Nc1cccn(CC(=O)NC23CC4CC(C)(CC(C)(C4)C2)C3)c1=O [III-88, (S,E)-methyl 7-(1-(2-(3,5-dimethyladamantane)-2-oxoethyl)-2-oxo-1,2-dihydropyridin-3-ylamino)-6-(1-methyl-1H-imidazole-5-carboxamido)-7-oxohept-2-enoate]
< 25 | < 1 | 1 to 10 | COC(=O)/C=C/CC[C@H](NC(=O)c1cnnn1C)C(=O)Nc1cccn(CC(=O)N[C@@H]2C[C@H]3CC[C@@H]2C3)c1=O [III-96, (S,E)-methyl 7-(1-(2-((1R,2R,4S)-bicyclo[2.2.1]heptan-2-ylamino)-2-oxoethyl)-2-oxo-1,2-dihydropyridin-3-ylamino)-6-(1-methyl-1H-1,2,3-triazole-5-carboxamido)-7-oxohept-2-enoate]
25 to 250 | < 1 | < 1 | COC(=O)/C=C/CC[C@H](NC(=O)c1ncns1)C(=O)Nc1cccn(CC(=O)NC23CC(C2)C3)c1=O [III-170, (S,E)-methyl 7-(1-(2-(bicyclo[1.1.1]pentan-1-ylamino)-2-oxoethyl)-2-oxo-1,2-dihydropyridin-3-ylamino)-7-oxo-6-(1,2,4-thiadiazole-5-carboxamido)hept-2-enoate]
25 to 250 | 3 to 5 | < 1 | COC(=O)/C=C/CC[C@H](NC(=O)c1oc2ccccc2c1C)C(=O)Nc1cccn(CC(=O)NC2(C#N)C3CC4CC(C3)CC2C4)c1=O (stereo partly drawn) [III-43, (S,E)-methyl 7-(1-(2-(2-carbonitrileadamantane-2-amino)-2-oxoethyl)-2-oxo-1,2-dihydropyridin-3-ylamino)-6-(3-methylbenzofuran-2-carboxamido)-7-oxohept-2-enoate]
25 to 250 | 3 to 5 | < 1 | COC(=O)/C=C/CC[C@H](NC(=O)[C@@H]1CCCNC1)C(=O)Nc1cccn(CC(=O)NC2C3CC4CC(C3)CC2C4)c1=O (stereo partly drawn) [III-30, (S,E)-methyl 7-(1-(2-(2-adamantylamino)-2-oxoethyl)-2-oxo-1,2-dihydropyridin-3-ylamino)-7-oxo-6-((R)-piperidine-3-carboxamido)hept-2-enoate]
< 25 | 3 to 5 | 1 to 10 | COC(=O)/C=C/CC[C@H](NC(=O)c1cc2cccc(F)c2s1)C(=O)Nc1cccn(CC(=O)NC2C3CC4CC(C3)CC2C4)c1=O (stereo partly drawn) [III-7, (S,E)-methyl 6-(7-fluorobenzo[b]thiophene-2-carboxamido)-7-(1-(2-(2-adamantylamino)-2-oxoethyl)-2-oxo-1,2-dihydropyridin-3-ylamino)-7-oxohept-2-enoate]
